# Assay results as given in patent US20210405025A1, “IDENTIFYING COMPOUNDS FOR TREATING CANCER AND USE THEREOF” (THE UAB RESEARCH FOUNDATION, priority 2018, published 2021).
# Counter-ions that a name gives are not always drawn.
# System: relapsed AML cells
# Assay: Drug sensitivity assay, 1,536-well, 3-day culture with individual approved drugs at 10 μM, viability by alamarBlue
# Assay type: cell-based, human
# Conditions: number of relapsed AML cases out of 18 tested with >70% cell death; 10 μM, 3-day culture
# Method in brief: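 Three-day exposure of primary AML cells to individual drugs in 1,536-well format, viability read as percent live cells. Cells were thawed, cultured overnight, sorted by FACS for viable blasts and plated at 4,000-4,500 cells/5 μL in cytokine-supplemented IMDM/BIT medium.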
row,Molecule,#Cases >70% cell death
1,CC[C@@H](C(=O)[C@@H](C)[C@@H](O)[C@H](C)[C@@H]1O[C@@H]([C@@H](CC)C(=O)O)CC[C@@H]1C)[C@H]1O[C@]2(C=C[C@@H](O)[C@]3(CC[C@@](C)([C@H]4CC[C@](O)(CC)[C@H](C)O4)O3)O2)[C@H](C)C[C@@H]1C [SALINOMYCIN],10
2,N=C(N)NC(=O)Cc1c(Cl)cccc1Cl [GUANFACINE HCL],1
3,CCCCc1oc2ccc(NS(C)(=O)=O)cc2c1C(=O)c1ccc(OCCCN(CCCC)CCCC)cc1 [DRONEDARONE],12
4,Cc1ccc(Nc2nccc(N(C)c3ccc4c(C)n(C)nc4c3)n2)cc1S(N)(=O)=O [PAZOPANIB],4
5,CC[C@H]1CN2CCc3cc(OC)c(OC)cc3[C@@H]2C[C@@H]1C[C@H]1NCCc2cc(OC)c(OC)cc21 [EMETINE],18
6,Cc1[nH]c2ccccc2c1CCNCc1ccc(/C=C/C(=O)NO)cc1 [PANOBINOSTAT],1
7,COc1cc(/C=C/C(=O)CC(=O)/C=C/c2ccc(O)c(OC)c2)ccc1O [CURCUMIN],1
8,Cc1cc(C#N)cc(C)c1Oc1nc(Nc2ccc(C#N)cc2)nc(N)c1Br [ETRAVIRINE],1
9,COc1ccc(CCN2CCC(Nc3nc4ccccc4n3Cc3ccc(F)cc3)CC2)cc1 [ASTEMIZOLE],7
10,"Cc1nccn1CC1CCc2c(c3ccccc3n2C)C1=O (stereo not drawn) [ONDANSETRON (Zofran), ONDANSETRON]",1
11,Cc1ccc(S(=O)(=O)NC(=O)NN2CC3CCCC3C2)cc1 (stereo not drawn) [GLICLAZIDE],1
12,COc1cc(Nc2c(C#N)cnc3cc(OCCCN4CCN(C)CC4)c(OC)cc23)c(Cl)cc1Cl [BOSUTINIB],12
13,COc1cc2nccc(Oc3ccc(NC(=O)C4(C(=O)Nc5ccc(F)cc5)CC4)cc3)c2cc1OC [CABOZANTINIB],2
14,CNC(=O)c1ccccc1Sc1ccc2c(/C=C/c3ccccn3)n[nH]c2c1 [AXITINIB],9
15,TYLOXAPOL,8
16,CCC1=C[C@@H]2CN(CCc3c([nH]c4ccccc34)[C@@](C(=O)OC)(c3cc4c(cc3OC)N(C)[C@H]3[C@@](O)(C(=O)OC)[C@H](OC(C)=O)[C@]5(CC)C=CCN6CC[C@]43[C@@H]65)C2)C1 [ANHYDROVINBLASTINE],5
17,COc1cccc(-c2cc(F)ccc2[C@H]2Cc3nc(N)nc(C)c3C(=O)N2)n1 [HSP-990],17
18,NONOXYNOL-9,2
19,Cc1cc(C(=O)NOCCO)c(Nc2ccc(I)cc2F)n(C)c1=O [AZD8330],2
20,CCCn1c(=O)c2[nH]c(C34CC5CC(CC3C5)C4)nc2n(CCC)c1=O [ROLOFYLLINE],1
21,CCNC1=Nc2ccc(Cl)cc2C(C)(c2ccccc2)O1 (stereo not drawn) [ETIFOXINE],4
22,CO[C@H]1C[C@H](O[C@@H]2/C(C)=C/C[C@@H]3C[C@@H](C[C@]4(CC[C@H](C)[C@@H](C5CCCCC5)O4)O3)OC(=O)[C@@H]3C=C(C)/C(=N/O)[C@H]4OC/C(=C\C=C\[C@@H]2C)[C@]43O)O[C@@H](C)[C@@H]1O [SELAMECTIN],18
23,CCCCC(CC)CNC(=N)NC(=N)NCCCCCCNC(=N)NC(=N)NCC(CC)CCCC (stereo not drawn) [ALEXIDINE],18
24,CC(C)(C)C(=O)C(Oc1ccc(Cl)cc1)n1ccnc1 (stereo not drawn) [CLIMBAZOLE],1
25,C[C@@H]1O[C@@H](O[C@H]2C[C@@H](O)[C@]3(CO)[C@H]4[C@H](O)C[C@]5(C)[C@@H](C6=CC(=O)OC6)CC[C@]5(O)[C@@H]4CC[C@]3(O)C2)[C@H](O)[C@H](O)[C@H]1O.O.O.O.O.O.O.O.O [STROPHANTINE OCTAHYDRATE],18
26,CC(=O)O[C@@]12CO[C@@H]1C[C@H](O)[C@@]1(C)C(=O)[C@H](O)C3=C(C)[C@@H](O)C[C@@](O)([C@@H](OC(=O)c4ccccc4)[C@H]21)C3(C)C [10-DAB],1

row,Molecule,#Cases >70% cell death
1,CCCCOc1ccc(OCCCN2CCOCC2)cc1 [PRAMOXINE],1
2,CCC1=C[C@@H]2CN(C1)Cc1c([nH]c3ccccc13)[C@@](C(=O)OC)(c1cc3c(cc1OC)N(C)[C@H]1[C@@](O)(C(=O)OC)[C@H](OC(C)=O)[C@]4(CC)C=CCN5CC[C@]31[C@@H]54)C2 [VINORELBINE],16
3,COc1ccc(S(=O)(=O)Nc2cccnc2Nc2ccc(O)cc2)cc1 [ABT-751],5
4,COC(=O)Nc1nc2cc(C(=O)c3ccc(F)cc3)ccc2[nH]1 [FLUBENDAZOLE],2
5,Cn1c(C#N)ccc1-c1ccc2c(c1)C(C)(C)OC(=S)N2 [TANAPROGET],5
6,CCCCOc1ccc(CC(=O)NO)cc1 [BUFEXAMAC],9
7,Cc1nc2sccn2c(=O)c1CCN1CCC(=C(c2ccc(F)cc2)c2ccc(F)cc2)CC1 [RITANSERIN],1
8,CC(C)C[C@H](NC(=O)[C@H](Cc1ccccc1)NC(=O)c1cnccn1)B(O)O [BORTEZOMIB],18
9,CN(C(=O)CN(CCO)CC(=O)N(C)C(C)(C)Cc1ccccc1)C(C)(C)Cc1ccccc1 [OXETHAZAINE],1
10,CN(C)C(=O)n1cc(C(=O)c2ccn3c2CS[C@@H]3c2cccnc2)c2ccc(-c3ccc(F)cc3)cc21 [A-85783],9
11,Cc1c(Nc2ncccc2C(=O)O)cccc1C(F)(F)F [FLUXININ],3
12,COc1cccc2c1C(=O)c1c(O)c3c(c(O)c1C2=O)C[C@@](O)(C(C)=O)C[C@@H]3O[C@H]1C[C@H](N)[C@H](O)[C@H](C)O1 [DAUNORUBICIN],18
13,CCN(CC)CCN(Cc1ccc(-c2ccc(C(F)(F)F)cc2)cc1)C(=O)Cn1c(SCc2ccc(F)cc2)nc(=O)c2c1CCC2 [DARAPLADIB],18
14,CC(=O)[C@H]1CC[C@H]2[C@@H]3C=CC4=CC(=O)CC[C@@]4(C)[C@@H]3CC[C@]12C [DYDROGESTERONE],1
15,CCN(CC)CCOCCOC(=O)C(CC)(CC)c1ccccc1.O=C(O)CC(O)(CC(=O)O)C(=O)O [OXELAIDIN CITRATE],2
16,CC1=C(C(=O)OC(C)C)C(c2cccc([N+](=O)[O-])c2)C(C(=O)OC2CN(C(c3ccccc3)c3ccccc3)C2)=C(N)N1 (stereo not drawn) [AZELNIDIPINE],5
17,N#CN=C(NCCCCCCOc1ccc(Cl)cc1)Nc1ccncc1 [GMX1778],16
18,CN1CCN(CCCN2c3ccccc3Sc3ccc(Cl)cc32)CC1 [PROCHLORPERAZINE],6
19,C[C@@H](Oc1cc(-c2cnn(C3CCNCC3)c2)cnc1N)c1c(Cl)ccc(F)c1Cl [CRIZOTINIB],10
20,CCCCCCCCCCCCCCCC[N+](C)(C)C.[Br-] [CETRIMONIUM BROMIDE],17
21,Cc1cc(Nc2nc(N[C@@H](C)c3ncc(F)cn3)ncc2Cl)[nH]n1 [AZD-1480],12
22,O=c1[nH]cc(F)c(=O)[nH]1 [FLUOROURACIL],4
23,C[C@@H]1O[C@@H](O[C@@H]2C=C3CC[C@@H]4[C@H](CC[C@]5(C)[C@@H](c6ccc(=O)oc6)CC[C@]45O)[C@@]3(C)CC2)[C@H](O)[C@H](O)[C@H]1O [PROSCILLARIDIN],18
24,Cc1ccc(C(=O)N(CCCN)[C@@H](c2oc3cc(Cl)ccc3c(=O)c2Cc2ccccc2)C(C)C)cc1 [SB743921],18
25,Nc1ccncc1 [4-AMINOPYRIDINE],1
